Test results from patent publication US20220088275A1, “HYDROGELS, METHODS OF MAKING, AND METHODS OF USE” (Convalesce Inc., priority 2019, published 2022).
Peptide text beside a SMILES is read from it.

What was measured:
[1] = in vitro; assay type: cell-based; conditions: human
Description: (§1) To determine the viability of cells within the hydrogels formed by L1 and L3, a Calcein-AM based toxicity assay was carried out. SHSY5Y cells were used for the toxicity assay. Cells were cultured in complete DMEM with 10% FBS, 1× Glutamax and 1% pen-strep antibiotic cocktail in a humidified incubator at 37° C. with 5% CO2. Cells cultured at 80% confluency in the culture vessel were used for the assay. SHSY5Y cells were washed with phosphate-buffered saline and treated with Accutase® to lift them of the culture vessel. Subsequently, it was neutralized with a double amount of complete media and centrifuged at 300 rpm for 5 minutes to obtain a cell pellet. Around 10,000 live cells (counted on a hemocytometer by Trypan blue exclusion) were added to 20 μL of each hydrogel and plated in a well of a 96 well polystyrene TC plate (with technical replicate=3). After 20 minutes, 100 μL complete media was added to each well. For control, a similar number of cells were added to a well without the hydrogel. 20 μL of phosphate buffer was added to each of the control wells. Cells were cultured for 24 hours before performing the Calcein-AM assay. Calcein-AM assay was carried out according to manufacturer's protocol. The viable cells were imaged with a wide-field fluorescence microscope and quantified.

[2] = system: SHSY5Y cells; assay: in vitro; assay type: cell-based; conditions: incubated for 24 hours; FIG. 10
Description: as §1

[3] = Hydrogel formation from laminin derived peptides; assay type: physicochemical; conditions: 1 mg peptide in 200 μL 20 mM phosphate buffer pH 7.4, NaCl 50 mM to 150 mM, 24 hours
Description: As an example of hydrogels based on self-aggregating peptides derived from non-amyloid proteins, laminin hydrogels were generated. Laminin was analyzed in silico to identify self-aggregating regions. After identification of such a region in the protein, its sequence was further modified to facilitate peptide self-assembly, and subsequently cross-beta sheet formation. Three peptides, L1-L3, were designed. The peptides were synthesized by a commercial vendor with 99% purity.
For forming the hydrogels, 1 mg peptide was mixed with 180 μL of 20 mM phosphate buffer, pH 7.4. The pH of this solution was raised to 10 by the gradual addition of 2N NaOH. NaCl was added to this solution in different quantities with a range from 50 mM to 150 mM final concentration. The pH of the solution was finally adjusted to 7.4 and the final volume of the solution was 200 μL. The solution was left undisturbed for 24 hours to facilitate the hydrogel formation.

SMILES	viability at 24 h [1]	viability of SHSY5Y cells relative to control (in words) [2]	hydrogel formation [3]
CC(C)C[C@H](NC(=O)[C@H](Cc1ccc(O)cc1)NC(=O)[C@H](Cc1ccccc1)NC(=O)[C@H](CC(C)C)NC(=O)[C@H](CC(C)C)NC(=O)OCC1c2ccccc2-c2ccccc21)C(=O)O [L1] (HELM PEPTIDE1{[O=C(OCC1c2ccccc2-c2ccccc21)[*:2]].L.L.F.Y.L}$$$$V2.0; C-terminus assumed)	85%	high viability	formed hydrogels
CC(C)C[C@H](NC(=O)[C@H](Cc1ccc(O)cc1)NC(=O)[C@@H](NC(=O)[C@H](CC(C)C)NC(=O)[C@H](CC(C)C)NC(=O)OCC1c2ccccc2-c2ccccc21)C(C)C)C(=O)O [L3] (HELM PEPTIDE1{[O=C(OCC1c2ccccc2-c2ccccc21)[*:2]].L.L.V.Y.L}$$$$V2.0; C-terminus assumed)	87%	high viability	formed hydrogels
